# Results from ChEMBL document CHEMBL3232907, “A high-throughput cell-based method to predict the unbound drug fraction in the brain” (J Med Chem, 2014).
# Legend:
# [1] = human, hek293, 0.1 µM
# [2] = Unbound fraction in HEK293 cell homogenate at 0.01 uM by equilibrium dialysis based UPLC-MS/MS analysis; assay type: ADME; conditions: human, hek293, 0.01 µM
structure (smiles),measurement,setting,value
CCCc1nc2c(C)cc(-c3nc4ccccc4n3C)cc2n1Cc1ccc(-c2ccccc2C(=O)O)cc1,Fu,[1],0.42
CC(C)(C)NC(=O)[C@@H]1C[C@@H]2CCCC[C@@H]2CN1C[C@@H](O)[C@H](Cc1ccccc1)NC(=O)[C@H](CC(N)=O)NC(=O)c1ccc2ccccc2n1,Fu,[1],0.17
CC(C)CN(C[C@@H](O)[C@H](Cc1ccccc1)NC(=O)O[C@H]1CCOC1)S(=O)(=O)c1ccc(N)cc1,Fu,[1],0.92
Cc1c(O)cccc1C(=O)N[C@@H](CSc1ccccc1)[C@H](O)CN1C[C@H]2CCCC[C@H]2C[C@H]1C(=O)NC(C)(C)C,Fu,[2],0.024
C=CCc1ccccc1OCC(O)CNC(C)C (stereo unspecified) [ALPRENOLOL],Fu,[1],0.9
CCCCN1CCCCC1C(=O)Nc1c(C)cccc1C (stereo unspecified) [BUPIVACAINE],Fu,[1],0.89
NC(=O)N1c2ccccc2C=Cc2ccccc21 [CARBAMAZEPINE],Fu,[1],0.97
COCc1c(C(C)C)nc(C(C)C)c(/C=C/[C@@H](O)C[C@@H](O)CC(=O)O)c1-c1ccc(F)cc1 [CERIVASTATIN],Fu,[1],0.55
CCCNC(=O)NS(=O)(=O)c1ccc(Cl)cc1 [CHLORPROPAMIDE],Fu,[1],1
CN/C(=N/CCSCc1nc[nH]c1C)NC#N [CIMETIDINE],Fu,[1],1
CN(C)CCCC1(c2ccc(F)cc2)OCc2cc(C#N)ccc21 (stereo unspecified) [CITALOPRAM],Fu,[1],0.81
CN(C)CCCN1c2ccccc2CCc2ccc(Cl)cc21 [CLOMIPRAMINE],Fu,[1],0.19
COc1ccc2c(c1)[C@]13CCCC[C@@H]1[C@H](C2)N(C)CC3 [DEXTROMETHORPHAN],Fu,[1],0.82
O=C(O)Cc1ccccc1Nc1c(Cl)cccc1Cl [DICLOFENAC],Fu,[1],0.78
O=C(CCCN1CCC(O)(c2ccc(Cl)cc2)CC1)c1ccc(F)cc1 [HALOPERIDOL],Fu,[1],0.52
COc1ccc2c(c1)c(CC(=O)O)c(C)n2C(=O)c1ccc(Cl)cc1 [INDOMETHACIN],Fu,[1],0.79
CC(=O)N1CCN(c2ccc(OCC3COC(Cn4ccnc4)(c4ccc(Cl)cc4Cl)O3)cc2)CC1 (stereo unspecified) [KETOCONAZOLE],Fu,[1],0.39
CN(C)C(=O)C(CCN1CCC(O)(c2ccc(Cl)cc2)CC1)(c1ccccc1)c1ccccc1 [LOPERAMIDE],Fu,[1],0.35
CC[C@H](C)C(=O)O[C@H]1C[C@@H](C)C=C2C=C[C@H](C)[C@H](CC[C@@H]3C[C@@H](O)CC(=O)O3)[C@H]21 [LOVASTATIN],Fu,[1],0.22
CCN(CC)CCNC(=O)c1cc(Cl)c(N)cc1OC [METOCLOPRAMIDE],Fu,[1],0.95
COCCc1ccc(OCC(O)CNC(C)C)cc1 (stereo unspecified) [METOPROLOL],Fu,[1],1
Cc1ncc2n1-c1ccc(Cl)cc1C(c1ccccc1F)=NC2 [MIDAZOLAM],Fu,[1],0.66
O=C1c2c(O)ccc(O)c2C(=O)c2c(NCCNCCO)ccc(NCCNCCO)c21 [MITOXANTRONE],Fu,[1],0.13
COC(=O)C1=C(C)NC(C)=C(C(=O)OCCN(C)Cc2ccccc2)C1c1cccc([N+](=O)[O-])c1 (stereo unspecified) [NICARDIPINE],Fu,[1],0.095
Cc1nccn1CC1CCc2c(c3ccccc3n2C)C1=O (stereo unspecified) [ONDANSETRON],Fu,[1],0.94
Fc1ccc([C@@H]2CCNC[C@H]2COc2ccc3c(c2)OCO3)cc1 [PAROXETINE],Fu,[1],0.25
CC(=O)[C@H]1CC[C@H]2[C@@H]3CCC4=CC(=O)CC[C@]4(C)[C@H]3CC[C@]12C [PROGESTERONE],Fu,[1],0.67
CC(C)NCC(O)COc1cccc2ccccc12 (stereo unspecified) [PROPRANOLOL],Fu,[1],0.7
CNC(=C[N+](=O)[O-])NCCSCc1ccc(CN(C)C)o1 [RANITIDINE],Fu,[1],1
CO[C@H]1/C=C/O[C@@]2(C)Oc3c(C)c(O)c4c(O)c(c(/C=N/N5CCN(C)CC5)c(O)c4c3C2=O)NC(=O)/C(C)=C\C=C\[C@H](C)[C@H](O)[C@@H](C)[C@@H](O)[C@@H](C)[C@H](OC(C)=O)[C@@H]1C [RIFAMPIN],Fu,[1],0.62
C[C@@H]1CN(c2c(F)c(N)c3c(=O)c(C(=O)O)cn(C4CC4)c3c2F)C[C@H](C)N1 [SPARFLOXACIN],Fu,[1],0.88
O=C(CCCN1CCC2(CC1)C(=O)NCN2c1ccccc1)c1ccc(F)cc1 [SPIPERONE],Fu,[1],0.66
O=C(O)c1cc(/N=N/c2ccc(S(=O)(=O)Nc3ccccn3)cc2)ccc1O [SULFASALAZINE],Fu,[1],0.72
CC(C)(C)NCC(O)COc1ccc(NC(=O)NC2CCCCC2)cc1 (stereo unspecified) [TALINOLOL],Fu,[1],0.85
CSc1ccc2c(c1)N(CCC1CCCCN1C)c1ccccc1S2 (stereo unspecified) [THIORIDAZINE],Fu,[1],0.049
CC(CN(C)C)CN1c2ccccc2CCc2ccccc21 (stereo unspecified) [TRIMIPRAMINE],Fu,[1],0.4
